Source: patent US20230124720A1, “APPLICATION OF ACRIDINEDIONE COMPOUND IN PREPARATION OF ANTI-DIABETIC DRUGS” (THE FOURTH MILITARY MEDICAL UNIVERSITY, priority 2020, published 2023)

Columns and labels:
[1] = Tissue distribution kinetics in SD rats (LC-MS/MS); type: in vivo, rat; conditions: gavage 10 mg/kg
Method: 40 healthy male SD rats, weighing 200-220 g, were housed adaptively for three days and fasted for 12 h prior to the experiment. All rats were randomly divided into 5 groups, 8 for each group. Each group of rats was gavaged with the ADD-16 solution (10 mg/kg), anesthetized at 10, 30, 60, 240, 480 min after administration, and sacrificed by exsanguination of the abdominal aorta, respectively. Each group of rats was sacrificed by dissection to collect tissues such as heart, liver, spleen, lung, kidney, brain, and islets. After washing the tissue samples with physiological saline to clean surface blood, the tissue samples were blotted with filter paper to dry surface moisture, weighed, and stored at −80° C. The assay was performed by natural thawing at room temperature and the concentration of ADD-16 in each tissue was determined using the LC-MS/MS method.

[2] = Plasma kinetics after single oral administration in SD rats (LC-MS/MS); type: in vivo, rat; conditions: single oral 10 mg/kg
Method: Eight healthy male SD rats, weighing 200-220 g, were housed in a clean animal room maintained at constant temperature (23±2° C.) and humidity (55±10%) with a 12 h/12 h artificial light cycle with free access to food and water and conditioned for 3 days prior to the experiment. All rats were fasted from water for 12 h prior to the experiment, and after oral administration of an ADD-16 solution (10 mg/kg) to each rat, and blood was taken at the orbital site at 5, 10, 15, 30, 45, 60, 120, 240, 360, 720, 1440 min. The blood was immediately fed into heparinized centrifuge tubes at 4° C., 3000 rpm/min, centrifuged for 10 min, and the supernatant plasma was carefully aspirated and stored at −80° C. Assays were performed by natural thawing at room temperature and plasma sample pre-treatment procedures were followed to determine plasma concentrations in rats following a single dose using the established LC-MS/MS method.

[3] = system: MIN6 cells; experiment: Glucose-stimulated insulin secretion in MIN6 cells (GSIS); type: cell-based, mouse
Method: MIN6 cells were seeded in a 24-well plate at an appropriate concentration, and after continued culture until cell confluence exceeded 80%, administration was carried out in the following groups: normal control group (Con), ADD group (ADD-16 was administered at a concentration of 100 μmol/L, 30 μmol/L, 10 μmol/L, 3 μmol/L, 1 μmol/L, 0.3 μmol/L, respectively), TAK875 group (administered at a concentration of 10 μmol/L, 3 μmol/L, 1 μmol/L, respectively), with 6 replicates per group. Incubation was continued for 24 h after group dosing, media was aspirated and gently rinsed 2 times with a sugar-free KRB buffer. After rinsing, the sugar-free KRB buffer was added and incubated at 37° C. for 10 min. At the end of the incubation, the buffer was aspirated and each well was exhausted as much as possible. Each group was dosed with 16.7 mmol/L glucose in a KRB buffer and incubated at 37° C. for 1 hour. All media in the wells was aspirated after 1 h, centrifuged at 2000 rmp/min for 20 min, and the supernatant was collected and stored at −20° C. The insulin content was measured for each group following the instructions of the mouse insulinase ELISA assay kit.
Insulinase ELISA assay: the supernatant of each set of media was taken and processed according to the procedure of Table 1:
The final mixture was mixed well with shaking and the OD was read on a microplate reader at 450 nm. The insulin content of each group was calculated.

[4] = system: STZ-induced T2DM rats; experiment: Oral glucose tolerance test (OGTT) in T2DM rats; type: in vivo, rat; conditions: artificially induced T2DM rats
Method: 150 male SD rats, housed in cages in a clean constant temperature (23±2° C.) and humidity (55±10%) animal house, were manually adjusted on a daily 12 h/12 h diurnal light cycle with free access to water. After 3 days of adaptive feeding, 150 rats were randomly divided into normal and model groups. The normal (Con, n=15) group of rats remained on raw chow and the model group (n=135) of rats were given high fat high sugar chow. All rats were fed twice daily and the amount of feed was adjusted as needed to ensure adequate feed. After 8 weeks of group feeding, the model group rats were given an intraperitoneal injection of 25 mg/kg STZ solution with a 12 h fast prior to injection. After injection, feeding was continued as in the original method, blood was taken from the tail vein at 72 h for blood glucose measurement, and rats with fasting blood glucose levels ≥11.1 mmol/L on different days were screened for successful artificial induction of T2DM and administered in groups for the next experiment. 135 rats with successful modeling were randomly divided into 9 groups: […] […] Relevant indicators of lipid metabolism were measured after the end of the study. At the final week of the Oral Glucose Tolerance Test (OGTT) test, each group of rats was fasted from water 16 h after gavage administration and the fasting blood glucose value (as 0 min) was measured for each rat. […]

[5] = biological target: T1, HEK-293T cells stably overexpressing GPR40 (Homo sapiens, UniProt O14842); experiment: GPR40 agonistic activity assay (Fluo-4 AM fluorescence, Flexstation); type: cell-based
T1 construct: expressed in transfected cells; host or cells: HEK-293T
Method: There were triplicate wells for each group, and a Flexstation instrument was used for detecting and reading fluorescence values. Each compound dilution concentration was: 200 μmol/L, 100 μmol/L, 50 μmol/L, 10 μmol/L, 5 μmol/L.
EC50 value for each compound was calculated from the measured fluorescence value according to the following formula:
Relative agonism ratio=(fluorescence value of test compound-fluorescence value of negative control)/(fluorescence value of agonist positive control-fluorescence value of negative control)*100%;

[6] = system: MIN6 cells; experiment: Cytotoxicity / growth of MIN6 cells (FIG. 1A); type: cell-based, mouse; conditions: 100 μmol/L
[7] = n = 6

T1 sequence (O14842 whole entry): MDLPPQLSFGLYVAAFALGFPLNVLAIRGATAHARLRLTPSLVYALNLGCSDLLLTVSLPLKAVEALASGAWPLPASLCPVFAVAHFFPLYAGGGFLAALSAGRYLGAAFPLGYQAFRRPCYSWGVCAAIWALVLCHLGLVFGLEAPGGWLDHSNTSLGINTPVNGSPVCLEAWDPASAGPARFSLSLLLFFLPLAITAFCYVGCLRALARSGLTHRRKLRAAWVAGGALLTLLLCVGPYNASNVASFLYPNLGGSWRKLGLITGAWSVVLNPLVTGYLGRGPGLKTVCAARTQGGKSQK

SMILES: CC1(C)CC(=O)C2=C(C1)NC1=C(C(=O)CC(C)(C)C1)C2c1ccc(OCc2ccc(C(=O)O)cc2)c(Br)c1 [ADD-16]
- islet targeting (in words) [1]: well-defined islet targeting
- tissue Cmax order ([1]; AUC 0-8 order the same): liver>islets>lung>kidney>heart>spleen>brain
- blood-brain barrier penetration (in words) ([1]; lowest concentration in brain tissue): does not readily penetrate the blood-brain barrier
- CL/F ([2]; male, SD, rat, plasma, po, 10 mg/kg, plasma, n = 8, read-out: CLz/F (clearance) (converted)): ~0.15 mL/min/kg
- Cmax ([2]; male, SD, rat, plasma, po, 10 mg/kg, plasma, n = 8, read-out: Cmax (plasma concentration maximum)): ~0.395 µg/mL
- Vd/F ([2]; male, SD, rat, plasma, po, 10 mg/kg, plasma, n = 8, read-out: Vz/F (apparent volume of distribution)): ~0.36 L/kg
- half-life ([2]; male, SD, rat, plasma, po, 10 mg/kg, plasma, n = 8, read-out: t1/2z (half-life) (converted)): ~30.2 h
- AUC(0-inf) ([2]; male, SD, rat, plasma, n = 8): 2.42 ± 0.527 µg·h/mL
- AUC(0-t) ([2]; male, SD, rat, plasma, n = 8): 1.13 ± 0.0357 µg·h/mL
- Tmax ([2]; male, SD, rat, plasma, n = 8): 0.5 h
- MRT last ([2]; male, SD, rat, plasma, n = 8, read-out: MRT(0-t)): 8.8 ± 0.4 h
- MRT inf ([2]; male, SD, rat, plasma, n = 8, read-out: MRT(0-∞)): 37.5 ± 9.2 h
- time of maximum blood concentration [2]: 30 min
- Cz ([2]; plasma, n = 8): 29.8 ± 10.3 ng/mL
- VRT(0-t) ([2]; plasma, n = 8): 55.2 ± 3.0 h^2
- VRT(0-∞) ([2]; plasma, n = 8): 1908.2 ± 835.5 h^2
- insulin secretion compared to the Con group (in words) ([3]; 100 μmol/L, 24 h): decreased insulin secretion
- glucose-stimulated insulin secretion (in words) ([3]; 24 h, 16.7 mmol/L glucose, concentration dependent): promote glucose-stimulated insulin secretion
- insulinotropic effect compared with TAK875 (in words) ([3]; same concentrations): significantly better than TAK875
- glucose tolerance (OGTT, in words) [4]: increase glucose tolerance
- EC50 ([5]; GPR40 agonism, n = 6): 12.3 µM
- agonistic activity (in words) ([5]; among the candidate compounds screened): highest agonistic activity
- effect on MIN6 cell growth (in words) [6]: inhibitory effect on MIN6 cell growth
- LD50 [7]: 123.2 µmol/L
